# Reference: patent US7928139B2 (Amgen Inc., priority 2006, dated 2011)
# Biological target: HIF PHD2 (Homo sapiens, UniProt Q9GZT9)
# Experiment: PHD2 inhibition assay (TR-FRET, VCB-Eu detection of hydroxylated P564-HIF1α peptide)
# Assay type: biochemical
# Details: 2 nM PHD2, 100 nM P564-HIF1α peptide, 0.25 μM 2-oxoglutarate, 100 μM FeCl2, 2 mM ascorbic acid
# Description: Inhibition of HIF PHD2 activity was quantified utilizing the TR-FRET technology. HIF PHD2 catalyzes a hydroxyl modification on the proline residue of the P564-HIF1α peptide substrate (Biotin-DLEMLAPYIPMDDDFQL (SEQ ID NO: 7)) resulting in recognition and binding of the europylated Von Hippel-Lindau protein (pVHL), elongin B and elongin C heterotrimeric (VCB-Eu) complex.
# The PHD2 inhibition assay was executed by addition of freshly dissolved FeCl2 to 178.57 μM (100 μM final concentration) in PHD2 Reaction Buffer containing 30 mM MES, pH 6, 10 mM NaCl, 0.25% Brij-35, 0.01% BSA, and 1% DMSO. 28 μL of the iron solution and 2 μL of inhibitor compounds serially diluted in 100% DMSO (5% DMSO final) were added to black polypropylene 96-well microtiter plates. To that, 10 μL of 10 nM PHD2 (2 nM final) was added to all wells of the plate except for the 8 wells of column 12 (LO control), and allowed to incubate at room temperature on the shaker for one hour. Column 6 was the HI control containing PHD2 enzyme and 5% DMSO vehicle, but no inhibitor compound. To initiate the PHD2 enzymatic reaction, 10 μL of a solution containing 500 nM P564-HIF1α peptide (100 nM final), 10 mM ascorbic acid (2 mM final), and 1.25 μM 2-oxoglutarate (α-ketoglutarate; 0.25 μM final) in PHD2 Reaction Buffer was added to all wells of the plate and allowed to incubate on the shaker at room temperature for one hour.
# The reaction was terminated by addition of 25 μL TR-FRET Buffer (50 mM TRIS-HCl, pH 9, 100 mM NaCl, 0.05% BSA, and 0.5% Tween-20) containing 150 mM succinate (product inhibitor; 50 mM final), 75 nM streptavidin-APC (25 nM final), and 7.5 nM VCB-Eu (2.5 nM final). The TR-FRET detection reagents were placed on a shaker for 1 hour to reach binding equilibrium before reading on the Discovery platform (PerkinElmer). Europium is excited at 315 nm and phosphoresces at 615 nm with a large Stoke's shift. APC, in turn, emits at 655 nm upon excitation at 615 nm. The TR-FRET signal is measured as the ratio of the APC 655 nm signal divided by the internal europium reference 615 nm emission signal.
# The POC (percentage of control) was determined by comparing the signal from hydroxylated peptide substrate in the enzyme reaction containing inhibitor compound with that from PHD2 enzyme with DMSO vehicle alone (HI control), and no enzyme (LO control). POC was calculated using the formula: % control (POC)=(cpd−average LO)/(average HI−average LO)*100. Data (consisting of POC and inhibitor concentration in μM) was fitted to a 4-parameter equation (y=A+((B−A)/(1+((x/C)^D))), where A is the minimum y (POC) value, B is the maximum y (POC), C is the x (cpd concentration) at the point of inflection and D is the slope factor) using a Levenburg-Marquardt non-linear regression algorithm.
# HIF PHD2, sequence (Q9GZT9 whole entry): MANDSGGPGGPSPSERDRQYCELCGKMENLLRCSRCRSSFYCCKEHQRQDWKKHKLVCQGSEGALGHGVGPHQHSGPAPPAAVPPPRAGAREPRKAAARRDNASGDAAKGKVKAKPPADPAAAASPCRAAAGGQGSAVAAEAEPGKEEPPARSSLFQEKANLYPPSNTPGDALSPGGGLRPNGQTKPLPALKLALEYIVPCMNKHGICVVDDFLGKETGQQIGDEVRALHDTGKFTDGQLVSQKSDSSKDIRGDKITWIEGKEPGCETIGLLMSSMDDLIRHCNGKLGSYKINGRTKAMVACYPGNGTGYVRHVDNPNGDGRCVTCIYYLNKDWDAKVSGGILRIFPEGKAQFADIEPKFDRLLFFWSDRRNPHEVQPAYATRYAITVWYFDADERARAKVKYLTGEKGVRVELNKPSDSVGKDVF
row,IC50,Structure (SMILES)
1,< 100 nM,"COc1cccc2c1C(O)=C(C(=O)NCC(=O)O)C(=O)C21CCOCC1 [Example 18, N-((5-Methoxy-4-hydroxy-2-oxo-2′,3′,5′,6′-tetrahydro-spiro[naphthalene-1,4′-pyran]-3-yl)carbonyl)glycine]"
2,< 100 nM,"COc1ccc2c(c1)C1(CCOCC1)C(=O)C(C(=O)NCC(=O)O)=C2O [Example 19, N-((4-Hydroxy-7-(methyloxy)-2-oxo-2′,3′,5′,6′-tetrahydro-spiro[naphthalene-1,4′-pyran]-3-yl)carbonyl)glycine]"
3,100 to 500 nM,"CC1(C)C(=O)C(C(=O)NCC(=O)O)=C(O)c2ccc(OCc3ccccc3)c(F)c21 [Example 20, N-((8-Fluoro-4-hydroxy-1,1-dimethyl-2-oxo-7-((phenylmethyl)oxy)-naphthalen-3-yl)carbonyl)glycine]"
4,100 to 500 nM,"CC(C)COc1ccc2c(c1F)C(C)(C)C(=O)C(C(=O)NCC(=O)O)=C2O [Example 21, N-((8-Fluoro-4-hydroxy-1,1-dimethyl-7-((2-methylpropyl)oxy)-2-oxo-naphthalen-3-yl)carbonyl)glycine]"
5,100 to 500 nM,"COc1ccc2c(c1F)C(C)(C)C(=O)C(C(=O)NCC(=O)O)=C2O [Example 22, N-((8-Fluoro-4-hydroxy-1,1-dimethyl-7-(methyloxy)-2-oxo-naphthalen-3-yl)carbonyl)glycine]"
6,< 100 nM,"CC1(C)C(=O)C(C(=O)NCC(=O)O)=C(O)c2ccc(O)c(F)c21 [Example 23, N-((8-Fluoro-4,7-dihydroxy-1,1-dimethyl-2-oxo-naphthalen-3-yl)carbonyl)glycine]"
7,< 100 nM,"CC1(C)C(=O)C(C(=O)NCC(=O)O)=C(O)c2ccc(F)c(F)c21 [Example 24, N-((7,8-Difluoro-4-hydroxy-1,1-dimethyl-2-oxo-naphthalen-3-yl)carbonyl)glycine]"
8,100 to 500 nM,"O=C(O)CNC(=O)C1=C(O)c2cc(Cl)ccc2C2(CCCC2)C1=O [Example 25, N-((6′-Chloro-4′-hydroxy-2′-oxo-spiro[cyclopentane-1,1′-naphthalen]-3′-yl)carbonyl)glycine]"
9,100 to 500 nM,"CC1(C)C(=O)C(C(=O)NCC(=O)O)=C(O)c2c(C(F)(F)F)cccc21 [Example 26, N-((4-Hydroxy-1,1-dimethyl-2-oxo-5-(trifluoromethyl)-naphthalen-3-yl)carbonyl)glycine]"
10,< 100 nM,"CC1(C)C(=O)C(C(=O)NCC(=O)O)=C(O)c2cccc(F)c21 [Example 27, N-((8-Fluoro-4-hydroxy-1,1-dimethyl-2-oxo-naphthalen-3-yl)carbonyl)glycine]"
11,< 100 nM,"CC1(C#N)C(=O)C(C(=O)NCC(=O)O)=C(O)c2ccccc21 (stereo not shown) [Example 28, N-((1-Cyano-4-hydroxy-1-methyl-2-oxo-naphthalen-3-yl)carbonyl)glycine]"
12,< 100 nM,"CC1(C)C(=O)C(C(=O)NCC(=O)O)=C(O)c2ccc(Cl)c(Cl)c21 [Example 31, N-((7,8-Dichloro-4-hydroxy-1,1-dimethyl-2-oxo-naphthalen-3-yl)carbonyl)glycine]"
13,100 to 500 nM,"CC1(C)C(=O)C(C(=O)NCC(=O)O)=C(O)c2cc(-c3ccc(F)cc3)ccc21 [Example 32, N-((6-(4-Fluorophenyl)-4-hydroxy-1,1-dimethyl-2-oxo-naphthalen-3-yl)carbonyl)glycine]"
14,< 100 nM,"CSc1ccc2c(c1)C(O)=C(C(=O)NCC(=O)O)C(=O)C2(C)C [Example 33, N-((4-Hydroxy-1,1-dimethyl-6-(methylthio)-2-oxo-naphthalen-3-yl)carbonyl)glycine]"
15,100 to 500 nM,"CC1(c2ccc(Cl)cc2)C(=O)C(C(=O)NCC(=O)O)=C(O)c2cc(Cl)ccc21 (stereo not shown) [Example 34, N-((6-Chloro-1-(4-chlorophenyl)-4-hydroxy-1-methyl-2-oxo-naphthalen-3-yl)carbonyl)glycine]"
16,100 to 500 nM,"CN(C)c1ccccc1-c1ccc2c(c1)C(O)=C(C(=O)NCC(=O)O)C(=O)C2(C)C [Example 35, N-((6-(2-(Dimethylamino)phenyl)-4-hydroxy-1,1-dimethyl-2-oxo-naphthalen-3-yl)carbonyl)glycine]"
